Experimental findings from ChEMBL document CHEMBL4813936, “Cyclopeptides from the Mushroom Pathogen Fungus Cladobotryum varium” (J Nat Prod, 2021) are described below.

Active and inactive are the calls of the source. The calls are words filed in the database; no cut-off is given here. Where a SMILES comes first, the peptide text is derived from it. [ ]: non-standard residue; d: D form. NMeF = CN[C@@H](Cc1ccccc1)C(=O)O; Hica(2S) = CC(C)C[C@H](O)C(=O)O; βAla = NCCC(=O)O

One assay relates to Staphylococcus aureus. Kind of assay: Antibacterial activity against Staphylococcus aureus FDA209P JC-1 assessed as reduction in microbial growth after 20 hrs by liquid microculture method. Type of assay: functional, organism-based.
Assay [1] relates to HeLa. Nature of the assay: Induction of autophagy in human HeLa cells expressing GFP-LC3 assessed as suppression of autolysosome formation at 10 nM measured after 24 hrs by fluorescence microscopic analysis. Type of assay: functional, cell-based.
For the next assay, the system named is P388. Nature of the assay: Cytotoxicity against mouse P388 cells measure after 72 hrs by XTT assay. Type of assay: functional, cell-based. On the technique in general: Formazan colour is commonly taken as a measure of viable cells.
The subject of another assay is Candida albicans. Nature of the assay: Antifungal activity against Candida albicans NBRC0197 assessed as reduction in microbial growth after 20 hrs by liquid microculture method. Type of assay: functional, organism-based.
The next assay has as its system Kocuria rhizophila. Kind of assay: Antibacterial activity against Kocuria rhizophila ATCC9341 assessed as reduction in microbial growth after 20 hrs by liquid microculture method. It counts as functional, organism-based.
Another assay concerns Trichophyton rubrum. Nature of the assay: Antifungal activity against Trichophyton rubrum NBRC5467 assessed as reduction in microbial growth after 20 hrs by liquid microculture method. It counts as functional, organism-based.
The subject of assay [2] is Agrobacterium tumefaciens. Nature of the assay: Antibacterial activity against Rhizobium radiobacter NBRC14554 assessed as reduction in microbial growth after 20 hrs by liquid microculture method. Type of assay: functional, organism-based.
In a further assay the test system is Ralstonia solanacearum. Kind of assay: Antibacterial activity against Ralstonia solanacearum assessed as reduction in microbial growth after 20 hrs by liquid microculture method. Type of assay: functional, organism-based.
In assay [3] the test system is HeLa. Kind of assay: Induction of autophagy in human HeLa cells expressing GFP-LC3 assessed as increase in punctate structures at 10 nM measured after 24 hrs by fluorescence microscopic analysis. Type of assay: functional, cell-based.

On to `CC[C@H](C)[C@@H]1NC(=O)[C@H](CC(C)C)NC(=O)[C@H](Cc2ccccc2)NC(=O)[C@@H](Cc2ccccc2)NC(=O)[C@@H](Cc2ccccc2)NC1=O`, for which the outcome with Staphylococcus aureus, with HeLa [1], in the assay on P388, with Candida albicans, in the assay on Kocuria rhizophila and in the assay on Trichophyton rubrum was inactive. The outcome (in assay [2]; in the assay with Ralstonia solanacearum; with HeLa [3]) was inactive.
Take `CC(C)C[C@@H]1OC(=O)CCNC(=O)[C@H](Cc2ccccc2)N(C)C(=O)[C@H](Cc2ccccc2)N(C)C(=O)[C@H](C(C)C)NC(=O)[C@@H]2CCCN2C1=O` (cyclo([Hica(2S)]PV[NMeF][NMeF][βAla])): the outcome in the assay with Staphylococcus aureus, in the assay with HeLa [1], in the assay on P388, with Candida albicans, in the assay on Kocuria rhizophila and in the assay on Trichophyton rubrum was inactive. Besides, the outcome (in assay [2]; in the assay with Ralstonia solanacearum; in the assay with HeLa [3]) was inactive.
Regarding `CC[C@H](C)[C@@H]1NC(=O)[C@@H]2CCCN2C(=O)[C@H](CC(C)C)OC(=O)CCNC(=O)[C@H](Cc2ccccc2)N(C)C(=O)[C@H](Cc2ccccc2)N(C)C1=O` (cyclo(I[NMeF][NMeF][βAla][Hica(2S)]P)), the outcome (in the assay with Staphylococcus aureus; with P388; with Candida albicans; in the assay with Kocuria rhizophila; in the assay with Trichophyton rubrum; in [2]) was inactive. Further, the result in the assay with Ralstonia solanacearum was inactive. Besides, the outcome in the assay on HeLa [1] and in the assay on HeLa [3] was Active.
